Reference: patent US12110287B2, “Heterocyclic derivatives as Nav1.7 and Nav1.8 blockers” (RaQualia Pharma Inc., priority 2018, dated 2024)

What was measured:
[1] = target: T1, Nav1.7 (Homo sapiens, UniProt Q15858); assay: EFS-FRET assay; assay type: cell-based; set-up: expressed in transfected cells; host or cells: CHO (Chinese hamster ovary) cells; settings: CHO cells expressing human Nav1.7 channels, read-out: IC50 against Nav1.7
Experimental: This screen is used to determine the effects of compounds on human Nav1.7 channels, utilizing electrical field stimulation (EFS) system in 96-well plate format on FDSS (Hamamatsu Photonics) platform. The changes of membrane potential are monitored with FRET dye pair, DiSBAC2(3) and PTS18.
CHO (Chinese hamster ovary) cells expressing human Nav1.7 channels are grown in T225 flasks, in a 5% CO2 humidified incubator to about 80% confluence. Media composition consists of HAM/F12 with Glutamax I, 10% FCS, 100 units/mF penicillin and 100 microgram/mF hygromycin.
• Seed each cell lines (1×10^5 cells/well) into 96-well plates prior to experimentation. • Incubate at 37° C. in 5% CO2 for 24 hours. • Wash each well with assay buffer (140 mM NaCl, 4.5 mM KCl, 10 mM D-Glucose, 2 mM CaCl2, 1 mM MgCl2, 10 mM HEPES, pH 7.4 adjusted with NaOH) twice. • Add 1st loading solution containing 10 microM PTS18 and 0.06% Pluronic F-127 in assay buffer. • Incubate the plate at rt in dark for 1 hour. • Remove 1st loading solution and add 2nd loading solution containing 12.5 microM DiSBAC2(3), 1.25 mM Xylene Fast Yellow and 0.0075% Pluronic F-127 in assay buffer. • Place the plate under the dark at rt for 25 minutes. • Add compound solutions into the assay plate. • Set the assay plate in FDSS and place an EFS device on the plate. • Measure EFS-induced fluorescent response by FDSS.
The data are analyzed and reported as normalized ratios of intensities measured at […]. The process of calculating these ratios is performed as follows:
This analysis is performed using a computerized specific program designed for FDSS generated data. Fluorescence ratio values are plotted using XLfit to determine an IC50 value for each compound.

[2] = target: T1, Nav1.7; assay: Electrophysiology assay (whole cell patch clamp), affinity to inactivated state; assay type: cell-based; set-up: expressed in transfected cells; settings: affinity to inactivated state (Kinact), read-out: activity (Ki) against Nav1.7
Experimental: Whole cell patch clamp recording is used to assess the efficacy or selectivity of Na (Sodium) channel blocker on human voltage gated sodium channels. Na channel expressing cells are dissociated by 0.05% Trypsin-EDTA or Accutase, and then seeded on cover glass for 2-24 hours.
Manual patch clamp recordings are conducted at rt using the voltage-clamp amplifier (Axon Instruments or HEKA electronik). Electrodes are pulled with P-97 electrode puller (Sutter Instrument). The electrode resistances are 1-3 MOhm when intercellular solution is filled. Currents are lowpass filtered between 2-5 kHz and digitally sampled at 10 kHz. […]
After whole-cell configuration is achieved, cell is monitored at least 10 minutes to allow cell dialysis with pipette solution. […]
Peak currents evoked by Test 1 and Test 2 pulses are sampled with Clampex (Axon Instruments) or Pulse+Pulse Fit (HEKA). Averaged peak currents under vehicle or test compounds are calculated from 3 data points at end of each condition.
Inhibitory effects (% inhibition) on peak currents at Test 1 or Test 2 pulse are plotted against test concentration and IC50 values at Test 1 (Closed IC50) or Test 2 (Inactivated IC50) are calculated with Hill equation, respectively. […]
After whole-cell configuration is achieved, the cell is monitored at least 10-15 minutes to allow cell dialysis with pipette solution. […]

T1 sequence (Q15858 whole entry): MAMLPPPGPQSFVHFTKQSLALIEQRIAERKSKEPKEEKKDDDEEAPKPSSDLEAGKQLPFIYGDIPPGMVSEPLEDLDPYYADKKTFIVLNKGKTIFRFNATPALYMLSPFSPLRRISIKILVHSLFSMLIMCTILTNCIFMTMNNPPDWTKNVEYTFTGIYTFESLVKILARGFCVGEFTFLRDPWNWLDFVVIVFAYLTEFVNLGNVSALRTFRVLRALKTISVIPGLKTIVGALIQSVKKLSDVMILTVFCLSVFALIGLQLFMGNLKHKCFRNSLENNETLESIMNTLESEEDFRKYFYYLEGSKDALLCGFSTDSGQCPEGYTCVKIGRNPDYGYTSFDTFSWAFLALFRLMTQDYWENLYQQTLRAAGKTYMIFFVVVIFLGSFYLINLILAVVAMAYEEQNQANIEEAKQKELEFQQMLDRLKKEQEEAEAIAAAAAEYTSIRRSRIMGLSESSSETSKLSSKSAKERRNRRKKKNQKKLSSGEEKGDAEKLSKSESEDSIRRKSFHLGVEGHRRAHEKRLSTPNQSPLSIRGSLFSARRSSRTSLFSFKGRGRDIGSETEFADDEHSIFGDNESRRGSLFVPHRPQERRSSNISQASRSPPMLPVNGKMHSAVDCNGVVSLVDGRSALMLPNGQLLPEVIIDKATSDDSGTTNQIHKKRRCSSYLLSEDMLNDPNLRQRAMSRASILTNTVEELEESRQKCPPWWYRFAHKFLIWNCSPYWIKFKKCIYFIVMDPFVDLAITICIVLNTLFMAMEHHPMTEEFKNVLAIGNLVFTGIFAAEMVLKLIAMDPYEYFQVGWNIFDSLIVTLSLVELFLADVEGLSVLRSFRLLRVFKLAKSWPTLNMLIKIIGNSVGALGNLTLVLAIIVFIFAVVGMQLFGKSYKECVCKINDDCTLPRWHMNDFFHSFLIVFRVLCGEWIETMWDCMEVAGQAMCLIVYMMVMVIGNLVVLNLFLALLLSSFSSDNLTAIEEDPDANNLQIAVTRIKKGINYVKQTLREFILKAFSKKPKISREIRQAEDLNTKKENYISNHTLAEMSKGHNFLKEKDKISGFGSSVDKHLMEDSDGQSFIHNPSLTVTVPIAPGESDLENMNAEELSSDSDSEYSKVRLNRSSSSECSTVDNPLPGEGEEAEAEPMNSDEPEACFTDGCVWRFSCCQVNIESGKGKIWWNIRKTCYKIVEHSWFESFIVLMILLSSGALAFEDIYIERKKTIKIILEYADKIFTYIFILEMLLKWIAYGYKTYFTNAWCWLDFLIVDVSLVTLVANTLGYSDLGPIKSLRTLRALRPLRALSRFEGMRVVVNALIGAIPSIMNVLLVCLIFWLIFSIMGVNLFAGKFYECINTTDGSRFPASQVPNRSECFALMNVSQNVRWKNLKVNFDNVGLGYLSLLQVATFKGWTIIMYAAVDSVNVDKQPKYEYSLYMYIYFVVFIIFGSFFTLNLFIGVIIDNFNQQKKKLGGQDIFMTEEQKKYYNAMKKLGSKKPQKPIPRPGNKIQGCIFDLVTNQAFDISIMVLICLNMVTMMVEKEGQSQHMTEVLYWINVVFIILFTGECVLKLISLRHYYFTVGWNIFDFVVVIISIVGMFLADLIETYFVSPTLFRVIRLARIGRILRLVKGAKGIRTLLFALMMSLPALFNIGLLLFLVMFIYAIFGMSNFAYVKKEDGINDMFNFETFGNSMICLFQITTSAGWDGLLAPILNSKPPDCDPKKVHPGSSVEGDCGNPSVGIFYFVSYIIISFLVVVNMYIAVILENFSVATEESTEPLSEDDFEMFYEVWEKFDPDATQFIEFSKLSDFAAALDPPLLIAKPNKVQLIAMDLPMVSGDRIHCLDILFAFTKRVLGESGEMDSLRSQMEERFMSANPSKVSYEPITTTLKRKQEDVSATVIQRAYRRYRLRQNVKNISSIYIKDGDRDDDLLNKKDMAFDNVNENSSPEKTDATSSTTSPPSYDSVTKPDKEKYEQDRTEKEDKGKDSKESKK

IC50 [1] [nM] | Ki [2] [nM] | SMILES
< 500 | < 200 | O=C(N[C@@H]1CCN(c2ncc(C(F)(F)F)cc2Cl)C1)c1ccnc(NC(=O)C2CC2)c1 [Example 9]
< 500 |  | CCC(=O)Nc1cc(C(=O)N[C@@H]2CCCN(c3ccc(OC(F)(F)F)cc3Cl)C2)ccn1 [Example 129]
< 500 |  | Cc1cc(C(=O)N[C@@H]2CCCN(c3ccc(OC(F)(F)F)cc3Cl)C2)nc(NC(=O)C2CC2)n1 [Example 132]
